In data set [1] the test system is OC cell lines (PA1, OVCA420, OVCAR3, SKOV3, OVCA433). Kind of data set: Live/Dead analysis under anchorage independence (anoikis), panel of OC cell lines. Format: cell-based, human. Conditions: 10 nM for 24 hours after 48 hours anchorage independence.
Data set [2] relates to PA1-luc-GFP cells. Briefly: PA1-luc-GFP intraperitoneal xenograft. Format: in vivo, NOD-SCID mice. The procedure: All animal studies were performed in accordance with the Institutional Animal Care and Use Committee at the University of Alabama Birmingham. Female SCID mice (Key resources table) at 5-7 weeks of age were housed under pathogen-free conditions at the Animal Research Facility at UAB. 1.5×10^6 GFP-luciferase SK-OV3 cells or 3×10^6 GFP-luciferase expressing PA1 cells were intraperitoneally injected. Mice were monitored daily, with girth and weight measurement taken twice a week. Tumor progression was tracked weekly using the IVIS Lumina III In vivo Imaging System (Caliper Life Sciences, MA) at UAB's Small Animal Imaging Facility. rhBMP9 was administered at the time of tumor cell injection followed by daily intraperitoneal (i.p.) injections of 1 mg/mL in 4 mM HCl+PBS+DI water (Vehicle), to achieve a final 5 mg/kg dose. For metastasis and tumor growth analysis, mice were euthanized between 21-50 days depending on the cell line. At necropsy, ascites, if present, were collected and volumes measured when possible, tumor weights in the omentum and other organs were recorded and collected when possible. For survival studies, mice that reached end-point criteria, including continued weight loss, respiratory trouble and permanent recumbency were euthanized. For microscopic analysis of tissues, formalin-fixed tissues were processed, paraffin-embedded, and sectioned at 5 μm thickness and H&E stained at UAB's histology core.
IHC was performed using the BioCare Mach4 Universal Detection Kit. Specifically, anti-SOX2 was diluted in Da Vinci Green Diluent and incubated overnight at 4° C. in a humidified chamber. HRP was detected with 3,30-diaminobenzidine (DAB) substrate for 4 minutes. TUNEL staining was performed according to the manufacturer's instruction. Slides were examined and images captured with EVOS M7000 microscope. Cell profiler (Stirling et al., 2021) and Image J Fiji software were used for image quantification.

Data set [3] in a line: ELISA of BMP9 in plasma from mice. The class given is in vivo. As to conditions: PA1-luc-GFP mice, daily i.p. administration.
For data set [4], the system named is SOX2. Kind of data set: SOX2 expression by Western blot / qRT-PCR in cancer cells. Format: cell-based, human. Here is the method:
(§1) Lysate and RNA preparation: 100,000-300,000 cells were seeded in a poly-HEMA coated 6-well plate for indicated times in full serum unless indicated otherwise. Cells were collected by centrifugation and lysed with trizol for RNA extraction or direct 2× lysis buffer for protein lysates.
Xenograft data were analyzed using parametric statistics as described in the legends. Survival curves were analyzed with log-rank statistics. In vitro experiments were analyzed using parametric statistics (ANOVA global test with Dunnett's/Sidak multiple comparison test as post-hoc tests as applicable and described in legend) and presented as the mean±SEM. All real time PCR's are relative semi quantitative RT-PCR's (hereby referred to as qRT-PCR) and are a combined quantitation of a minimum of 3 independent biological trials assayed in triplicate with biological replicates represented as individual scatter dots in the graphs or as indicated in legends. In all cases, statistical significance was set at a threshold of p<0.05. All statistical analyses were conducted with GraphPad Prism Software Ver. 9.0 and specific statistical test information described in figure legends.
(In general: In western blotting, separated proteins are transferred to a membrane and probed.)

Data set [5] relates to OCT4 or NANOG. Kind of data set: qRT-PCR of OCT4 and NANOG under 3D condition. Format: cell-based, human. As to conditions: PA1 cells. Here is the method:
as §1
A general note: In qPCR the cycle at which signal appears reflects the starting amount.

In data set [6] the test system is SOX2 promoter. Kind of data set: Chromatin immunoprecipitation (ChIP) at SOX2 promoter regions. Format: cell-based, human. The procedure:
ChIP was carried out using a modified version of a previously described protocol (Medeiros et al., 2009). Cells were grown to 80% confluency in 150 mm culture dishes. Cells were fixed at room temperature in 1% Paraformaldehyde solution (dilute 8% PFA in serum free media to get 1%) and rocked for 10 minutes. 10×Glycine was added to the plate and allowed to sit for 5 minutes at room temperature. Cells were scraped down and cell suspension were transferred to a cold centrifuge tube for centrifugation at 720 RCF at 4° C. for 10 minutes. Cells were rinsed with 1X Phosphate buffer saline and centrifugation repeated. Cell pellet was next resuspended in lysis buffers described in (Medeiros et al., 2009) to obtain nuclei pellet. This was followed by chromatin sonication, using QSonica sonicator (model CL-188) for four cycles (30% amplitude for 15 secs ON and 30 secs OFF) to obtain DNA fragments with a length from 150 to 300 bp. 1/10th of the supernatant was stored as input control. ChIP was performed using Protein A magnetic beads (Dynabeads, Invitrogen #10001D) to couple […] ChIP-grade antibodies for SMAD1, SMAD3, H3K27me3, H3K4me3, or rabbit IgG antibody overnight at 4 °C. DNA was purified using the PureLink Quick PCR Purification kit (Thermo Fisher Cat #: K310001) and enrichment of DNA fragments analyzed via relative quantitative RT-PCR (qPCR) using ChIP primers (see Table 2) to specific locations. Negative and positive control regions were included in all analysis.

The test system of data set [7] is HEYT30 cells. Kind of data set: Cell survival under anchorage independence, HEYT30. Format: cell-based, human. Here is the method:
(§2) For Live/Dead analysis under anchorage independence, 1,000 cells were seeded in 96-well hydrogel-coated ultra-low attachment (ULA) plates (Corning #4515) for times indicated. Growth factor treatment was done under low serum 2.5% FBS condition (Cells were plated in 10% FBS to allow spheroid formation before beginning treatment). Cells were then stained with 2 μM Calcein-AM and 4 μM Ethidium-homodimer for 30 min before imaging. z-stacked images were obtained using the Zeiss LSM700 Confocal microscope (Microscopy and Flow Cytometry Core, University of South Carolina) and NIKON A1 Confocal microscope (UAB High Resolution Imaging Facility). Fluorescent quantification was performed using ImageJ Fiji software to calculate the Corrected Total Cell Fluorescent (CTCF)=Integrated Density−(Area of selected cell×Mean fluorescence of background readings) per spheroid.

For data set [8], the system named is A2780CP cells. Kind of data set: Cell survival under anchorage independence, A2780CP. The class given is cell-based, human. Conditions: dose and time course. The procedure:
as §2

Experimental findings from patent US20240408175A1, “BMP9 OR AN AGONIST THEREOF AND ITS USES RELATED TO REDUCING METASTASIS OF CANCER” (THE UAB RESEARCH FOUNDATION, priority 2021, published 2024) are described below.

With “BMP9: recombinant human bone morphogenetic protein 9 (BMP9/GDF2), TGF-β family ligand”, the “percentage of dead cells” value in data set [1] is recorded as “increase”. The omental tumor burden entry in data set [2] (5 mg/kg i.p. daily, 7-week study, vs vehicle) is given as “significantly lower”. For the same substance, the “overall i.p. tumor burden over time by bioluminescence imaging” value in data set [2] (5 mg/kg i.p. daily, vs vehicle) is “significant reduction”. Also, the “infiltrated tumor cells in omental tumors (histology)” value in data set [2] (vs vehicle) is “significantly fewer”. In data set [2] (vs vehicle-treated mice), the “increase in TUNEL-positive cells in tumors” value is on record as “a factor of two increase”. Further, the “BMP9 in plasma (ELISA)” value in data set [3] is listed as “elevated”. For the same substance, in data set [4] (A549, BON-1, H727 cells, 24 hours), the “SOX2 expression in other cancer types” value was “downregulated”. The “SOX2 in patient ascites-derived tumor cells” value in data set [4] (EOC15 and AF68, anchorage-independent, 48 hours) is listed as “downregulated”. The “anchorage-independence-induced increases in SOX2” value in data set [4] (OVCAR4, OVCA420, OVCA433 cells, 3D) is recorded as “effectively suppressed”. Also, in data set [4] (PA1 and OVCAR3, indicated doses, 24 h), the “dose-response of SOX2 protein” value is reported as “dose-dependent repression”. Further, in data set [4] (PA1 cells, 3D, 24 hrs), the “SOX2 by qRT-PCR in anchorage-independent conditions” value is recorded as “downregulation”. Further, in data set [4] (several cell lines incl. OVCAR3 and SKOV3, 10 nM, 24 hours), the “reduction in SOX2 expression under attached growth conditions” value is listed as “significant”. Moreover, in data set [5], the “effect on OCT4 or NANOG” value is recorded as “did not have any significant effect”. Besides, the “SMAD1 binding at sites p1 and p6 (ChIP)” value in data set [6] (1 h treatment) is given as “significant enrichment”. In addition, the “histone H3K27me3 on the SOX2 promoter (ChIP)” value in data set [6] (PA1, 1 hour rhBMP9) is “significantly enriched”. Further, the “reduction in percentage live cells” value in data set [7] (10 nM) is 63%; in data set [7] (1 and 5 nM), “about 35%”. The “decrease in percentage live cells” value in data set [8] is given as 25-55%.
